Laboratory results reported in paper PMC10503991, “Synthesis of some new isoxazole compounds and their biological tyrosinase and antioxidant activities” (Turkish Journal of Chemistry, 2021).

What was measured:
[1] = Cupric ion reducing (CUPRAC) method; conditions: for CUPRAC (mg TEAC/mg): trolox equivalents per mg compound
Experimental: The capacity of 8–14 compounds to reduce cupric ions was established as it was described before. A reaction mixture was prepared by mixing a volume of CuCl2 (0.250 mL, 10 mM), neocuproine (0.250 mL, 7.5 mM in ethanol) and NH4Ac buffer (0.250 mL, 1 M, pH 7.0) with standard/compound solutions at different concentrations. SA blank was prepared by adding sample solution to premixed reaction mixture CuCl2. The absorbances of the blank and sample were read at 450 nm after a 30-min incubation at room temperature. The absorbance of the blank was subtracted from that of the sample. CUPRAC activity was expressed as equivalents of trolox (mg TEAC/mg compound).

[2] = DPPH free radical scavenging method; conditions: concentration causing 50% scavenging of DPPH radical; Trolox standard
Experimental: The DPPH free radical scavenging activities of 8–14 compounds were determined using the method described before. Alcoholic solution of DPPH (1 mL, […] in methanol) was mixed with 8–14 compound solutions prepared in DMSO. […] DPPH gives a purple color in methanol. This color is decayed by antioxidant. So reduction in the absorbance indicates DPPH• scavenging activity. Trolox was used as standard radical scavenger and values were expressed as SC50 (μg compound per mL), the concentration of the samples that causes 50% scavenging of DPPH radical.

[3] = target: mushroom tyrosinase (Agaricus bisporus, UniProt C7FF04); test: Mushroom tyrosinase inhibition assay (L-DOPA substrate, 475 nm); format: biochemical; conditions: for IC50 values for the tyrosinase enzyme inhibition: abstract, unit not given; for Tyrosinase (IC50 μg/mL): mushroom tyrosinase, L-DOPA substrate, kojic acid positive control
Chain of mushroom tyrosinase (C7FF04 1-392): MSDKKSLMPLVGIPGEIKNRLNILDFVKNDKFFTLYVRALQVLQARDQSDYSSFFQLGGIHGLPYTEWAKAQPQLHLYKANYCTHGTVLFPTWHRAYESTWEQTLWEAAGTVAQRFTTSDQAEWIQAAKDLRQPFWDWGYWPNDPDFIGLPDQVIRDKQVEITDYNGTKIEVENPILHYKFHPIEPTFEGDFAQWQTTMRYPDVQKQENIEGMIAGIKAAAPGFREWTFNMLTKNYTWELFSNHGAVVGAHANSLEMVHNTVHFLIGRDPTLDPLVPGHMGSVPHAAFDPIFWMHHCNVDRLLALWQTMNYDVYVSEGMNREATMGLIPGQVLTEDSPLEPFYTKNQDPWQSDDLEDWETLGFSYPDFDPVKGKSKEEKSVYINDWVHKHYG
Experimental: The mushroom tyrosinase inhibition assay was carried out according previously reported method. […] After 10 min of a preincubation period at room temperature, the enzymatic reaction was initiated with the addition of L-DOPA (3 mM, 20 μL) as substrate. The absorbance was read at 475 nm. The compound concentration giving 50% inhibition of tyrosinase activity was determined by interpolation of concentration-response curves. […] The extract concentration giving 50% (IC50) of the original tyrosinase activity was determined.
The position, number and nature of the substituent on benzene and pyridine rings were varied in order to identify the most appropriate group.

[4] = set-up: method as in PMID 33763478; conditions: comparator in literature study; cited from earlier work

SMILES | melting point [°C] | CUPRAC (mg TEAC/mg) [1] [mg TEAC/mg] | DPPH, SC50 [2] [µg/mL] | IC50 values for the tyrosinase enzyme inhibition [3] | Tyrosinase (IC50 μg/mL) [3] | CUPRAC values ([1]; as printed in the results text b37) [mg TEAC/mg] | antioxidant activity in DPPH assay IC50 [4] [µg/mL]
COc1ccccc1-c1cc(-c2ccc(OC)c(OC)c2OC)on1 [Compound 8, 3-(2-methoxyphenyl)-5-(2,3,4-trimethoxyphenyl)isoxazole] | 102 to 103 | 1.156 ± 0.026 | 61.42 ± 1.41 |  |  |  | 
COc1ccc(-c2cc(-c3ccc(OC)cc3OC)on2)cc1 [Compound 9, 3-(4-methoxyphenyl)-5-(2,4-dimethoxyphenyl)isoxazole] | 93 to 94 | 0.856 ± 0.013 | 71.96 ± 2.36 | did not show any inhibition effect | No inhibition |  | 
Oc1cccc(-c2cc(-c3ccccc3)on2)c1 [Compound 10, 3-(3-hydroxyphenyl)-5-(phenyl)isoxazole] | 230 to 231 | 0.789 ± 0.009 | 65.65 ± 1.69 | did not show any inhibition effect | No inhibition |  | 
COc1ccc(-c2cc(-c3cccc(O)c3)no2)c(OC)c1 [Compound 11, 3-(3-hydroxyphenyl)-5-(2,4-dimethoxyphenyl)isoxazole] | 168 to 169 | 0.584 ± 0.011 | 81.52 ± 3.66 |  |  |  | 
COc1ccc(OC)c(-c2cc(-c3ccc(O)cc3)no2)c1 [Compound 12, 3-(4-hydroxyphenyl)-5-(2,5-dimethoxyphenyl)isoxazole] | 176 to 178 | 1.233 ± 0.015 | 40.21 ± 2.71 |  |  |  | 
COc1cccc(-c2cc(-c3ccccn3)on2)c1 [Compound 13, 3-(3-methoxyphenyl)-5-(2-pyridinyl)isoxazole] |  | 1.245 ± 0.019 | 57.32 ± 2.12 |  |  | 1.25 ± 0.019 | 
COc1ccc(-c2cc(-c3ccncc3)on2)cc1 [Compound 14, 3-(4-methoxyphenyl)-5-(4-pyridinyl)isoxazole] | 141 to 143 | 1.189 ± 0.021 | 54.41 ± 2.87 | did not show any inhibition effect | No inhibition |  | 
Cc1c(C)c2c(c(C)c1O)CCC(C)(C(=O)O)O2 (centres unmarked) [Trolox, reference compound] |  |  | 5.56 ± 0.85 |  |  |  | 2.75
